Source: patent US20100204156A1, “USE OF THYMOPENTIN AS A THERAPEUTIC AGENT” (priority 2007, published 2010)
Residues, ends and D or L forms follow the SMILES beside them.

Experiments:
CEM-SS cells = assay: Cell viability / cytotoxicity (MTS) in the HIV-1 assay; conditions: peptide 10 micrograms per ml, MTS
Human A549 cells [1] = assay: Propidium iodide cell cycle assay; type: cell-based; conditions: 24 hours, test peptide 10 micrograms per ml, FACS
Description: Human A549 cells (carcinomic human alveolar basal epithelial cells) were utilized in the experiments employing the Propidium iodide cell cycle assay. The eukaryotic cell cycle is a series of events that take place in a cell leading to its replication. The regulation of the cell cycle involves steps crucial to the cell, including detecting and repairing genetic damage, and provision of various checks to prevent uncontrolled cell division. The molecular events that control the cell cycle are ordered and directional; that is, each process occurs in a sequential fashion. The cell cycle consists of four distinct phases: G1 phase, S phase, G2 phase (collectively known as interphase) and M phase. M phase is itself composed of two tightly coupled processes: mitosis, in which the cell's chromosomes are divided between the two daughter cells, and cytokinesis, in which the cell's cytoplasm divides forming distinct cells. Activation of each phase is dependent on the proper progression and completion of the previous one. Cells that have temporarily or reversibly stopped dividing are said to have entered a state of quiescence called Go phase. The relatively brief M phase consists of nuclear division and cytoplasmic division. The first phase within interphase, from the end of the previous M phase till the beginning of DNA synthesis is called G1 (G indicating gap or growth). During this phase the biosynthetic activities of the cell resume at a high rate. This phase is marked by synthesis of various enzymes that are required in S phase, mainly those needed for DNA replication. The ensuing S phase starts when DNA synthesis commences; when it is complete, all of the chromosomes have been replicated. The cell then enters the G2 phase, which lasts until the cell enters mitosis. Significant protein synthesis occurs during this phase, mainly involving the production of microtubules, which are required during the process of mitosis. […]
Propidium iodide is an intercalating agent and a fluorescent molecule that can be used to stain DNA. […] After incubation for 40 min at 37° C., cells were analyzed in the FACS.

Human A549 cells [2] = assay: Apoptosis induction assay (Annexin-5); type: cell-based; conditions: 24 hours, test peptide 10 micrograms per ml
Description: Human A549 cells (carcinomic human alveolar basal epithelial cells) were utilized in the experiments employing the Annexin-5 apoptosis assay. Annexin-5 is a member of a highly conserved protein family that binds acidic phospholipids in a calcium-dependent manner. […] Phosphatidylserine is translocated from the inner side of the plasma membrane to the outer layer when cells undergo death by apoptosis or cell necrosis and serves as a signal by which cell destined for death are recognized by phagocytes. Test peptide—10 micrograms per ml—were exposed for 24 hours to the A549 cells before they were analyzed for signs of apoptosis.

[3] = Cell viability (dye uptake) in the HBV assay; type: cell-based; conditions: human, HepG2-2.2.15 cells, test peptide 10 micrograms per ml
[4] = Cell viability / cytotoxicity (MTS) in the HIV-1 assay; conditions: human, CEM-SS cells
HIV-1IIIB = assay: HIV-1 antiviral assay (CPE reduction, MTS) in CEM-SS cells; type: cell-based; conditions: peptide 10 micrograms per ml, 6 days post-infection
HUVEC = assay: Endothelial tube formation assay; type: cell-based, Human; conditions: 20 hours, test peptide 10 micrograms per ml
Description: Positive control was vehicle only.

MRSA = assay: Methicillin Resistant Staphylococcus Aureus (MRSA) assay; type: cell-based; conditions: MRSA growth; peptide 10 micrograms per ml; read visually
[5] = system: hepatitis B virus (HBV) ayw strain; assay: HBV assay: secreted HBV DNA by real-time TaqMan PCR in HepG2-2.2.15 cells; type: cell-based; conditions: test peptide 10 micrograms per ml; six days; HBV DNA in supernatant
Description: HepG2-2.2.15 is a stable cell line containing the hepatitis B virus (HBV) ayw strain genome (ATCC Cat. No. CRL-11997). Antiviral compounds blocking any late step of viral replication such as transcription, translation, pregenome encapsidation, reverse transcription, particle assembly and release can be identified and characterized using this cell line. In this assay, an active compound will reduce the production of secreted HBV from cells, measured by utilizing real time quantitative PCR (TaqMan) assay to directly and accurately measure HBV DNA copies.
HepG2-2.2.15 cells were plated in 96-well microtiter plates. After 16-24 hours the confluent monolayer of HepG2-2.2.15 cells was washed and the medium was replaced with complete medium containing test peptide—10 micrograms per ml—in duplicate. […] Six days following the initial administration of the peptide, the cell culture supernatants was collected, treated with pronase and DNAse and then used in a real-time quantitative TaqMan PCR assay. The PCR-amplified HBV DNA was detected in real-time by monitoring increases in fluorescence signals that result from the exonucleolytic degradation of a quenched fluorescence probe molecule that hybridizes to the amplified HBV DNA. […] Antiviral activity was calculated from the reduction in HBV DNA levels (% virus control). […]

[6] = system: Primary Human endothelial cells (HUVEC); assay: Endothelial cell migration assay; type: cell-based; conditions: 22 hours, test peptide 10 micrograms per ml
Streptococcus pneumoniae = Streptococcus pneumoniae assay; type: cell-based; conditions: Streptococcus pneumoniae growth; peptide 10 micrograms per ml; read visually
[7] = system: spleen cells of Ovalbumin-immunized Balb/c mice; assay: Th1/Th2 cytokine profiling assay (Mouse Th1/Th2 Cytokine CBA Kit); type: cell-based; conditions: test peptide 10 micrograms per ml; Ovalbumin restimulation, 72 hours
Description: The Balb/c mice (originated in 1923, it is a popular strain and is used in many different research disciplines. Also classified as an inbred from the production of 20 or more successive brother-sister matings, the Balb/c mouse is albino and small in size) were immunized on Days 1, 15, and 29 with Ovalbumin (Ovalbumin is the main protein found in egg white, commonly used to stimulate an immunological reaction in test animals) in PBS (5 micrograms/injection). On day 50, spleens of the mice were harvested (3 weeks after last boost with Ovalbumin). […] Thereafter, additional Ovalbumin was added to the cells at 10 micrograms/ml for in vitro restimulation of the cells. 72 hours later, cell supernatants were harvested and assayed using the Becton Dickinson Mouse Th1/Th2 Cytokine CBA Kit. This kit can be used to measure Interleukin-2 (IL-2), Interleukin-4 (IL-4), Interleukin-5 (IL-5), Interferon-γ (IFN-γ), and Tumor Necrosis Factor-α (TNF-α) protein levels in a single sample. The kit performance has been optimized for analysis of physiologically relevant concentrations ([…] levels) of specific cytokine proteins in tissue culture supernatants and serum samples.

HCMV strain AD169 = assay: HCMV plaque reduction assay in MRC-5 cells; type: cell-based; conditions: HCMV AD169 in MRC-5 cells; peptide 10 micrograms per ml; 7-10 days
Description: (§1) Ganciclovir was used as positive control.

[8] = system: Human Peripheral Blood Mononuclear Cells (PBMC); assay: B cell proliferation assay (SAC plus Interleukin-2, 3H-thymidine); type: cell-based; conditions: test peptide 10 micrograms per ml
Protocol: Human Peripheral Blood Mononuclear Cells (PBMC) were obtained from normal human donors. The B cell proliferation was induced by stimulation of the cells with the B cell mitogen Staphylococcus aureus Cowans I (SAC) plus Interleukin-2, either in the absence (positive proliferation control), or in the presence of test peptide—10 micrograms per ml—to examine their effects on the B cell response. 10^5/well PBMC were plated in 96-well microtiter plates and assayed in duplicate with the peptide. Cell cultures were incubated at 37° C. for 3 days in a 5% CO2 incubator and were thereafter pulsed with 1 microCi/well ^3H-thymidine for additional 12 hours of culture. At the end of incubation time, the plates were harvested and the cells counted by liquid scintillation for the incorporation of ^3H-thymidine as a measure of B cell proliferation.

[9] = system: Human Peripheral Blood Mononuclear Cells (PBMC); assay: T cell proliferation assay (PHA, 3H-thymidine); type: cell-based; conditions: test peptide 10 micrograms per ml
Protocol: Human Peripheral Blood Mononuclear Cells (PBMC) were obtained from normal human donors. The T cell proliferation was induced by stimulation of the cells with the T cell mitogen phytohemagglutinin (PHA), either in the absence (positive proliferation control), or in the presence of test peptide—10 micrograms per ml—to examine their effects on the T cell proliferating response. 10^5/well PBMC were plated in 96-well microtiter plates and assayed in duplicate with the peptide. Cell cultures were incubated at 37° C. for 3 days in a 5% CO2 incubator and were thereafter pulsed with 1 microCi/well ^3H-thymidine for additional 12 hours of culture. At the end of incubation time, the plates were harvested and the cells counted by liquid scintillation for the incorporation of ^3H-thymidine as a measure of T cell proliferation.

Human A549 cells [10] = assay: Apoptosis prevention assay (Annexin-5, C2 ceramide); type: cell-based; conditions: A549 cells pretreated 30 min, test peptide 10 micrograms per ml
Description: Human A549 cells (carcinomic human alveolar basal epithelial cells) were utilized in the experiments employing the Annexin-5 apoptosis assay. Annexin-5 is a member of a highly conserved protein family that binds acidic phospholipids in a calcium-dependent manner. […] Phosphatidylserine is translocated from the inner side of the plasma membrane to the outer layer when cells undergo death by apoptosis or cell necrosis and serves as a signal by which cell destined for death are recognized by phagocytes. A549 cells were pretreated for 30 min with test peptide—10 micrograms per ml—followed by the exposure to C2 ceramide. Ceramide mediates cell apoptosis through the activation of the mitogen activating protein kinase (MAPK) and the stress activated kinase (JNK/SAPK). C2 ceramide is a synthetic, membrane soluble analog of ceramide.

[11] = system: macrophages differentiated from Human PBMC; assay: TNF alpha production assay (LPS-stimulated macrophages, ELISA); type: cell-based; conditions: test peptide 10 micrograms per ml, lipopolysaccharide 200 ng/ml, overnight
Protocol: Human Peripheral Blood Mononuclear Cells (PBMC) were obtained from normal human donors. The macrophages were prepared by adherence of PBMC to the plastic wells of the plates. […] Not stimulated macrophages served as negative background control. After overnight incubation, supernatants from the control and LPS-stimulated cultures were harvested and assayed for TNF alpha production employing a TNF alpha specific ELISA.

Pseudomonas aeruginosa = Pseudomonas aeruginosa assay; type: cell-based; conditions: Pseudomonas aeruginosa growth; peptide 10 micrograms per ml; read visually
[12] = Cytotoxicity testing (CellTiter 96) in MRC-5 cells; type: cell-based; conditions: human, MRC-5 cells (human embryonal lung fibroblasts), 6 days incubation, read-out: % Cell viability
Description: as §1

Cc1cn([C@H]2C[C@H](N=[N+]=[N-])[C@@H](CO)O2)c(=O)[nH]c1=O [AZT, reference compound]
% Cell viability (CEM-SS cells): 97%

CC(C)[C@H](NC(=O)[C@H](CC(=O)O)NC(=O)[C@H](CCCCN)NC(=O)[C@@H](N)CCCN=C(N)N)C(=O)N[C@@H](Cc1ccc(O)cc1)C(=O)O [Thymopentin, Arg-Lys-Asp-Val-Tyr-OH] (H-RKDVY-OH)
Cell cycle analysis G0/G1 (Human A549 cells [1]): 54.6 | Cell cycle analysis G2/M (Human A549 cells [1]): 10.7 | Cell cycle analysis S (Human A549 cells [1]): 34.8 | % of induction (Human A549 cells [2]): 0.6% | viability at 144 h, 10 micrograms per ml [3]: 100% | viability at 10 micrograms per ml [4]: 100% | % CPE reduction in HIV-1 infected CEM-SS cells (HIV-1IIIB): 0.0% | % inhibition of tube formation (HUVEC): 31% | % inhibition (MRSA): 0.0% | % inhibition of HBV replication in HEP G2 cells [5]: 6.2% | % inhibition of migration [6]: 7% | % inhibition (Streptococcus pneumoniae): 0.0% | IFNγ spleen cells; TH1 response (% of control) [7]: 62.0 % of control | IL-2 spleen cells (% of control) [7]: 122.2 % of control | IL-4 spleen cells; TH2 response (% of control) [7]: 170.6 % of control | IL-5 spleen cells; TH2 response (% of control) [7]: 73.8 % of control | TNF-a spleen cells; TH1 response (% of control) [7]: 109.6 % of control | % plaque reduction (HCMV strain AD169): 1.4% | % of SAC/IL2 induced control [8]: 94.4% | % of PHA induced control [9]: 89.1% | % prevention of ceramide induced apoptosis (Human A549 cells [10]): 0.0% | % of LPS induction [11]: 108.9% | % inhibition (Pseudomonas aeruginosa): 0.0% | viability at 144 h [12]: 100%
